Reference: patent US5750552A, “Imidazoline derivative, possible tautomer thereof, and vulnerary including such derivative or tautomer” (Arax Co., Ltd., priority 1995, dated 1998)

Legend:
[1] = system: bFGF mRNA; assay: Effect on additional expression of bFGF mRNA in RGM1 cells (RT-PCR, band intensity); assay type: cell-based, rat; set-up: key: ++: the expression of the bFGF mRNA in the imidazoline-treated cells was considerably increased; +: the expression of the bFGF mRNA was increased to some extent; settings: 48 hours, vs cells without the derivative
Text: Effect of imidazoline derivatives on the additional expression of the bFGF
There will be next explained an effect of the imidazoline derivatives in vitro.
Initially, there will be explained an effect of the imidazoline derivative on the additional expression of bFGF in the cells cultured. The reverse transcription-polymerase chain reaction (PCR) was used to explain the effects of imidazoline derivatives on the additional expression of bFGF, and then the PCR products were subjected to electrophoresis to confirm a bFGF band.
An established rat gastric mucosal epithelial cell line RGM1 was seeded in petri dishes (1×10^6 cells/dish), in the presence of D-MEM/Ham 12 (1:1) mixed medium containing 20% fetal calf serum. After 24 hours, the imidazoline derivatives as the specimen drugs according to the present invention were applied in the culture medium, and the cells were cultured for 48 hours. The compounds prepared in Examples 1 and 14 were used as the specimen drugs. Cultures were then supplemented with the compounds in final concentrations (10 μM and 100 μM for the compound of Example 1, and 3 μM, 10 μM and 100 μM for the compound of Example 14).
From the cultured cells of each sample subjected to the above-described processing by the specimen drugs, total cellular RNA was extracted according to Acid Guanidinium Thiocyanate-Phenol-Chloroform method (AGPC). Described more specifically, after cultivation with the above compounds in the culture medium, the culture supernatant was completely removed by suction. To the cells of each sample left in the petri dish, 500 μL of Solution D (consisting of: 4M of guanidinethiocyanate; 25 mM of sodium citrate; 0.5% sarkosyl solution, 0.1M of 2-mercaptoethanol) was added, and the cells were scraped with rubber policeman (available from SUMITOMO BAKELITE CO., LTD.). The thus obtained cell suspension was transfered into a micro centrifuge tube, and there were successively added 50 μL of 2M sodium acetate (pH 4.0), 500 μL of water-saturated phenol and 100 μL of chloroform-isoamyl alcohol (49:1). The suspension was mixed each time the above-described substances were added. The suspension was placed on ice for 15 minutes after it was intensely shaken for 1 minute. Then, the suspension was centrifuged at 10000 rpm for 20 minutes at 4° C. The aqueous layer (upper layer) was transfered into another micro centrifuge tube, and was intimately mixed with an equivalent amount of isopropanol. After the mixture was kept at -20° C. for one hour, it was centrifuged at 10000 rpm for 20 minutes at 4° C. After the centrifugation, the upper layer was discarded, and a precipitate of mRNA was completely dissolved in 200 μL of Solution D. The thus obtained solution was mixed again with an equivalent amount of isopropanol and the mixture was kept at -20° C. for one hour. The mixture was then subjected to centrifugation for 20 minutes at 4° C. and 10000 rpm. After the centrifugation, the supernatant was discarded, and the precipitate was centrifuged at 10000 rpm for 10 minutes at 4° C. The supernatant was discarded, while the precipitate was dried in vacuo for 5 minutes. The total RNA was dissolved in 50 μL of distilled water processed by diethyl pyrocarbonate (DEPC). The concentration of total RNA was measured on the basis of its absorbance at 260 nm by ultraviolet spectrum.
The CDNA synthesis was performed by means of Reverse Transcriptase using the above obtained total RNA as a template. As a primer, a random primer was employed. […]

[2] = system: wound in rat; assay: Healing effect on wound in rat; assay type: in vivo, SD rats; settings: for Healing days / Healing Index: 15 days; for effect on healing days and Healing Index (in words): TABLES 7 and 8
Procedure: Healing Effect on wound in rat
Male 7-week SD rats were classified into groups each consisting of 6-7 rats, such that all the groups have substantially the same average weight. The experiment was performed on the rats according to a method of Tsurumi et al. (Oyo Yakuri, Vol. 7, pp833, 1973). Initially, the rats were subjected to an anesthesia with pentobarbital. The hair of the back of each rat was clipped, and the skin was disinfected with 70% ethanol. Then, the skin was lightly pulled and punched off in a direction from the right to the left by means of a punch whose diameter is 10 mm, so as to form two open wounds on portions of the back of the rat which are symmetrical to each other with respect to the center line of the back. The compounds of Examples indicated in the following TABLES 7 and 8 were used as specimen drugs, and orally administered once a day to each of the rats with doses indicated in the TABLES 7 and 8. The oral administration continued for 15 consecutive days, beginning from the first day when the wounds were formed on the back of each rat.
To clarify the healing effect on the wounds, an Healing Index and healing days were obtained in the following manner. Initially, the lengths of a major axis and a minor axis of each wound formed on the back were measured using calipers. On the basis of the measured length values, the area of each wound was calculated as the area of an ellipse. The Healing Index was obtained according to a method of Nakano et al. (Oyo Yakuri, Vol. 47, pp29, 1994). Described more specifically, a ratio of area of each wound was chronologically represented in a graph, and an area of the lower part of a curve in the graph during a period from the fifth day to the fifteenth day after the wounds were formed was obtained as the Healing Index. […] The healing days were obtained as the number of the days that were required for the wounds to be completely covered with regenerated epidermises. As for the wound that was healed in more than 15 days, the healing days were obtained as 16 days.

[3] = system: water-immersion restraint stress-induced gastric ulcer; assay: Inhibitory effect on water-immersion restraint stress-induced gastric ulcer; assay type: in vivo, SD rats; settings: 10 mg/kg oral, 30 min before stress
Procedure: Inhibitory effect on water-immersion restraint stress-induced gastric ulcer
Male 7-week SD rats were fasted for 24 hours, with a fast of water beginning in early morning of the day when the experiments were performed. The rats were classified into groups each consisting of five rats, such that all the groups have substantially the same average weight. Thirty minutes before giving a stress to the rats, the compounds of the Examples indicated in TABLE 3 were orally administered as specimen drugs to the rats, with a dose of 10 mg/kg. The rats were then kept in stress cages, and were given a stress by immersing the cages in a water bath kept at a substantially constant temperature of 23°±1° C., such that the water level was at the height of the xiphoid of the rats. Seven hours later, the specimen rats were sacrificed by ether, and the gastric mucosa of each rat was semi-fixed with 2% formaline. The longitudinal length of the damaged area of the gastric mucosa was measured. A sum of the measured length values of the rats of each group was calculated as an ulcer index. An anti-ulcer or ulcer inhibitory percent (%) was calculated as {1-(ulcer index of each group of specimen rats)/(ulcer index of non-specimen group)}×100.

[4] = system: bFGF; assay: Production amount of bFGF in RGM1 culture supernatant (ELISA); assay type: cell-based, Wistar rat; settings: not stated which
Procedure: Effect of imidazoline derivatives on the additional expression of bFGF
Initially, RGM1 cells which are derived from a gastric mucosa epithelial cell of a Wistar rat were seeded into 24 well plates (2×10^4 cells/dish, 1 mL/well), and cultured for 24 hours. As the imidazoline derivative according to the present invention, the compound obtained in Example 14 was used. The compound was applied to the cells in final concentrations of 3 μM, 10 μM and 30 μM. After 24 hours, the culture supernatants which correspond to the respective concentration values were collected, and analyzed using bFGF ELISA kit. Similarly, the culture supernatants were collected 48 hours after the application of the compound. Described more specifically, 50 μL of each culture supernatant was applied to a 96 well microplate coated with bFGF monoclonal antibody. The plate was incubated for a predetermined time so that the bFGF contained in each culture supernatant was bonded to the bFGF monoclonal antibody. Thereafter, each supernatant was reacted with horseradish peroxidase conjugated antibody which is able to recognize another epitope of the bFGF, so as to form, on the 96 well microplate, a sandwich type composite body consisting of immobilized antibody (bFGF monoclonal antibody), antigen (bFGF), and HRP linked antibody. Subsequently, HRP linked antibody of the composite body was colored using o-phenylenediamine and H2 O2. The reaction was terminated by using sulfuric acid after a predetermined time has elapsed. Then, the absorbance of reactant at 490 nm was measured using a micro-platereader. The production amount of the bFGF was obtained for each culture supernatant, on the basis of the measured absorbance values, according to a standard curve prepared for a standard bFGF of a human body.

[5] = system: gastric acid secretion in a pylorus ligated rat; assay: Inhibitory effect on the gastric acid secretion in a pylorus ligated rat; assay type: in vivo, SD rats; settings: 4 hours
Procedure: Inhibitory effect on the gastric acid secretion in a pylorus ligated rat Male 7-week SD rats were fasted for 24 hours, with a fast of water beginning in early morning of the day when the experiments were performed. The rats were classified into groups each consisting of five rats, such that all the groups have substantially the same average weight. The experiments were performed according to a method of Shay et. al. (Shay, H. et. al., Gastroenterology, Vol. 5, pp43, 1945). Described more specifically, each of the rats was subjected to a light anesthesia by ether, and the hair of the abdomen of each rat was clipped. Then, the abdomen was incised over a length of 1.5 cm along the center line downwards from a portion 1 cm below the xiphoid of the rat, and the stomach was taken out of the body. A portion connecting the pylorus and the duodenum was ligated by suturing thread. […] After the administration, the skin of the abdominal muscle and abdomen was sutured. The rats were kept in cages and fasted for 4 hours with a fast of water. Then, the rats were sacrificed by ether, and the stomach of each rat was removed. The gastric content was obtained from a small hole formed through the stomach of each rat and was collected in a test tube. […] An amount of supernatant was measured as a volume of gastric acid, and a total acidity of the gastric acid was also measured. A volume of gastric acid inhibitory percent (%) and a total acidity inhibitory percent (%) were calculated in the same manner as the ulcer inhibitory percent was calculated. The total acidity was obtained as a product of the amount of gastric acid secreted for 4 hours and the acidity per 1 mL of the gastric acid which was subjected to neutralization titration by an aqueous solution of 0.01N sodium hydroxide.

CC1(C)N=C([S+]([O-])Cc2ccccc2NC(=O)C(F)(F)F)NC1=S (centres unmarked) [Example 1, 2-(2-N-trifluoroacetylaminobenzylsulfinyl)-5,5-dimethylimidazolin-4-thione]
Band Intensity ([1]; 10 μM): +
Band Intensity ([1]; 100 μM): +
Healing days ([2]; TABLE 7, 50 mg/kg oral once a day, control 15.1 ± 0.22): 14.4 ± 0.38 days
Healing Index ([2]; TABLE 7, 50 mg/kg oral once a day, control 188.3 ± 18.2): 183.2 ± 11.2
Healing days ([2]; TABLE 7, 100 mg/kg oral once a day, control 15.1 ± 0.22): 14.2 ± 0.37 days
Healing Index ([2]; TABLE 7, 100 mg/kg oral once a day, control 188.3 ± 18.2): 157.5 ± 18.9
effect on healing days and Healing Index (in words) [2]: effective to reduce the healing days and lower the Healing Index

CCC1(CC)N=C([S+]([O-])Cc2ccccc2N(C)C)NC1=S (centres unmarked) [Example 7, 2-(2-dimethylaminobenzylsulfinyl)-5,5-diethylimidazolin-4-thione]
Inhibitory Percent (ulcer) [3]: 53.9%

CC1(C)N=C([S+]([O-])Cc2ccccc2NCC(F)(F)F)NC1=S (centres unmarked) [Example 12, 2-[2-N-(2,2,2-trifluoroethyl)aminobenzylsulfinyl]-5,5-dimethylimidazolin-4-thione]
Inhibitory Percent (ulcer) [3]: 46.6%

CC(C)CN(C)c1ccccc1C[S+]([O-])C1=NC(C)(C)C(=S)N1 (centres unmarked) [Example 14, 2-(2-N-isobutyl-N-methylaminobenzylsulfinyl)-5,5-dimethylimidazolin-4-thione]
Band Intensity ([1]; 3 μM): ++
Band Intensity ([1]; 10 μM): ++
Band Intensity ([1]; 100 μM): ++
Healing days ([2]; TABLE 8, 50 mg/kg oral once a day, control 14.3 ± 0.37): 13.5 ± 0.42 days
Healing Index ([2]; TABLE 8, 50 mg/kg oral once a day, control 152.0 ± 9.5): 116.5 ± 7.0
Healing days ([2]; TABLE 8, 100 mg/kg oral once a day, control 14.3 ± 0.37): 13.6 ± 0.44 days
Healing Index ([2]; TABLE 8, 100 mg/kg oral once a day, control 152.0 ± 9.5): 126.5 ± 8.3
effect on healing days and Healing Index (in words) [2]: effective to reduce the healing days and lower the Healing Index
Production amount of bFGF ([4]; concentration of drug 3, 24 or 48 hours): 15 pg/mL
Production amount of bFGF ([4]; concentration of drug 10, 24 or 48 hours): 29 pg/mL
Production amount of bFGF ([4]; concentration of drug 30, 24 or 48 hours): 36 pg/mL

CN/C(=N/CCSCc1nc[nH]c1C)NC#N [cimetidine]
Total acidity Inhibitory percent ([5]; 10 mg/kg intraduodenal): 27.7%
Volume of Gastric acid Inhibitory percent ([5]; 10 mg/kg intraduodenal): 22.7%
Total acidity Inhibitory percent ([5]; 30 mg/kg intraduodenal): 51.8%
Volume of Gastric acid Inhibitory percent ([5]; 30 mg/kg intraduodenal): 31.2%
Total acidity Inhibitory percent ([5]; 100 mg/kg intraduodenal): 76.1%
Volume of Gastric acid Inhibitory percent ([5]; 100 mg/kg intraduodenal): 52.8%
